One assay concerns the target T1, PI3Kβ (p110β/p85α) (Homo sapiens, UniProt P42338).
T1 construct: purchased Invitrogen
Description: PI3K biochemical enzyme assay (Adapta universal kinase assay), p110 beta/p85 alpha. As to conditions: for IC50: Table 2, PI3k biochemical assays, read-out: p110β/p85α IC50. As to the method: (§1) This example describes a method of obtaining in vitro activity data concerning the effect of compounds of on various PI3K isoforms. The effect of compounds on the kinase activity of Class I PI3Ks was measured at Invitrogen by using the Adapta® universal kinase assay. It was a homogenous, fluorescent based immunoassay for the detection of ADP produced by the kinase reaction. This assay can be divided into two phases: a kinase reaction phase, and an ADP detection phase. In the kinase reaction phase, all components required for the kinase reaction were added to the well, and the reaction was allowed to incubate for 60 minutes. After the reaction, a detection solution consisting of a europium labeled anti-ADP antibody, an Alexa Fluor® 647 labeled ADP tracer, and EDTA (to stop the kinase reaction) was added to the assay well. ADP formed by the kinase reaction (in the absence of an inhibitor) displaced the Alexa Fluor® 647 labeled ADP tracer from the antibody, resulting in a decrease in the TR-FRET signal.
(§2) ADP formation was determined by calculating the emission ratio from the assay well. The emission ratio was calculated by dividing the intensity of the tracer (acceptor) emission by the intensity of the Eu (donor) emission at 615 nm as shown in the equation below.
(§3) The Test Compounds were screened in 1% DMSO (final) in the well. All Substrate/Kinase Mixtures were diluted to a 2× working concentration in the appropriate Kinase Buffer as described below for the individual kinase:
The 2× p 110beta/p85 alpha/PIP2:PS mixture was prepared in 50 mM HEPES pH 7.5, 100 mM NaCl, 0.03% CHAPS, 1 mM EGTA, 3 mM mgCl2, and 2 mM DTT. The final 10 μL Kinase Reaction consisted of 35.4 ng p110 beta/p85 alpha and 50 μM PIP2:PS. After the 1 hour Kinase Reaction incubation, 5 μL of Detection Mix was added.
(§4) The Detection mix consisted of EDTA (30 mM), Eu-anti-ADP antibody (30 nM) and ADP tracer. All ATP Solutions were diluted to a 4× working concentration in water and used at the Km apparent concentrations for each individual kinase.

The target in a further assay is T2, PI3Kδ (p110δ/p85α) (Homo sapiens, UniProt O00329).
T2 construct: purchased Invitrogen
T2 sequence (O00329 whole entry): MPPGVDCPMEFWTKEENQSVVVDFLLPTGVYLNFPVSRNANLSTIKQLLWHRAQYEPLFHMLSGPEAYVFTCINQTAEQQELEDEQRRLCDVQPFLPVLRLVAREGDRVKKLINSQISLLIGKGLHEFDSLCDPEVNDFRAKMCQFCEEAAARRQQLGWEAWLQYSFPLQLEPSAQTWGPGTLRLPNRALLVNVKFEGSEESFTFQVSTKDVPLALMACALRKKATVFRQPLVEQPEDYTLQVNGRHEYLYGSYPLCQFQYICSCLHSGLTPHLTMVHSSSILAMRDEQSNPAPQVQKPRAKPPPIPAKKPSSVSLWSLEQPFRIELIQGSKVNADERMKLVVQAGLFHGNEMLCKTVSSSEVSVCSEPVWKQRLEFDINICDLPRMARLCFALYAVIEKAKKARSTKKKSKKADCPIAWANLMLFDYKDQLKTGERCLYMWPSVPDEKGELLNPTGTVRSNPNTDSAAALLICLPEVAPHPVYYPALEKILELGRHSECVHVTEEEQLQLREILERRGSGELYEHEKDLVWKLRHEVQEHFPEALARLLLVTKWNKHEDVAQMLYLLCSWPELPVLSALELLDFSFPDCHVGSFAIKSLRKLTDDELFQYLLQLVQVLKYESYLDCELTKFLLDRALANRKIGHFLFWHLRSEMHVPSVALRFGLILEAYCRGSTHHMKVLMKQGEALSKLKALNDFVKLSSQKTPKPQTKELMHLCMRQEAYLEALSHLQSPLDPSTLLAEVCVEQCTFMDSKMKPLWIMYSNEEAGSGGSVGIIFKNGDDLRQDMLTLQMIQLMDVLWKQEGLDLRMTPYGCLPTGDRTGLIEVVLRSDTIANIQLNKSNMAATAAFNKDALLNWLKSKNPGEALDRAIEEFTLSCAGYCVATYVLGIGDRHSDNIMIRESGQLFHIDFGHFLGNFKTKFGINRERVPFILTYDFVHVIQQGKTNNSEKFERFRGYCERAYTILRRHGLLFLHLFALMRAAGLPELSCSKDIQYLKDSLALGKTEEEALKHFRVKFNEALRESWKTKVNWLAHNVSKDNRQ
T2 sequence (P27986 whole entry partner): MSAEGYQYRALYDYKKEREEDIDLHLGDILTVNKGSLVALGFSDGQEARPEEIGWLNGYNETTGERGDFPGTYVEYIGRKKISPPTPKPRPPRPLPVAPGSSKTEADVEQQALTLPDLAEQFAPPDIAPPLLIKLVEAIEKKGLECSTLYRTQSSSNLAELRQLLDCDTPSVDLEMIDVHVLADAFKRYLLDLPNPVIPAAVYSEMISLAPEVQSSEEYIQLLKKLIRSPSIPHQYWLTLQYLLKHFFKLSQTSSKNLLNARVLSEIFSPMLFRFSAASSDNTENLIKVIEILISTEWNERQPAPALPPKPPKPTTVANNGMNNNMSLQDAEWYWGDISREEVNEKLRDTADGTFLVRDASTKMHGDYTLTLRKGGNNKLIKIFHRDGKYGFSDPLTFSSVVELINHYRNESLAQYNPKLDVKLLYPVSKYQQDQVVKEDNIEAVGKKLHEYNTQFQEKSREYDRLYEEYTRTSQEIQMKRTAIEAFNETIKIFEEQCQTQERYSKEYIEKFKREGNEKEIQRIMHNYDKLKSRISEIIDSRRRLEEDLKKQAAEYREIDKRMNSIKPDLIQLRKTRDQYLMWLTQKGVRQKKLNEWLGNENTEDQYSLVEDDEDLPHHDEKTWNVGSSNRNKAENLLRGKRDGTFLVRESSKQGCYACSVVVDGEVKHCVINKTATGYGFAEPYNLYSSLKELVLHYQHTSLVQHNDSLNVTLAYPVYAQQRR
Description: PI3K biochemical enzyme assay (Adapta universal kinase assay), p110 delta/p85 alpha. As to conditions: for inhibition at 0.1 µM / inhibition at 1 µM / inhibition at 10 µM: read-out: PI3Kδ % inhib; for IC50: Table 2, PI3k biochemical assays, read-out: p110δ/p85α IC50. As to the method: as §1, §2, §3
The 2× p110 delta/p85 alpha/PIP2:PS mixture was prepared in 50 mM HEPES pH 7.5, 100 mM NaCl, 0.03% CHAPS, 3 mM mgCl2, 1 mM EGTA. The final 10 μL Kinase Reaction consisted of 0.35-2.6 ng p110 delta/p85 alpha and 50 μM PIP2:PS in 32.5 mM HEPES pH 7.5, 50 mM NaCl, 0.015% CHAPS, 1.5 mM mgCl2, 0.5 mM EGTA. After the 1 hour Kinase Reaction incubation, […] of Detection Mix was added.
as §4

A further assay concerns the target T3, PI3Kγ (p110 gamma) (Homo sapiens, UniProt P48736).
T3 construct: purchased Invitrogen
Description: PI3K biochemical enzyme assay (Adapta universal kinase assay), p110 gamma. Conditions: for IC50: Table 2, PI3k biochemical assays, read-out: p120γ IC50. The procedure:
as §1, §2, §3
The 2× p110 gamma/PIP2:PS mixture was prepared in 50 mM HEPES pH 7.5, 1 mM EGTA, 3 mM mgCl2. The final […] Kinase Reaction consisted of 3.5-26 ng p110 gamma and 50 μM PIP2:PS in 32.5 mM HEPES pH 7.5, 0.5 mM EGTA, 1.5 mM mgCl2. After the 1 hour Kinase Reaction incubation, 5 μL of Detection Mix was added.
as §4

Another assay concerns the target T4, PI3Kγ (Mus musculus, UniProt Q9JHG7).
T4 construct: endogenous in cells; host or cells: RAW-264 macrophage cells (ATCC)
Description: PI3Kγ-dependent cell-based assay: C5a-mediated AKT phosphorylation in RAW-264 cells. Also noted: species or system murine. As to conditions: C5a-induced AKT phosphorylation, RAW-264 macrophages. As to the method: PDGF-BB-induced AKT phosphorylation in Swiss-3T3 fibroblasts is mediated by p110α. C5a-induced AKT phosphorylation in RAW-264 murine macrophages is mediated exclusively by p110γ.
PI3Kγ-Dependent Cell-Based Assay: C5a-Mediated AKT Phosphorylation in RAW-264 Cells
RAW-264 macrophage cells (American Type Culture Collection) were cultured with Dulbecco's modified Eagle medium (DMEM) containing 10% fetal bovine serum and the antibiotics penicillin and streptomycin. Cells were seeded on a 96-well Tissue Culture Plate at 100,000 to 200,000 cells/well the day before the experiment. Next day, cells were starved for 2 hr in 0.1% FBS containing medium. The cells were pretreated with inhibitors or DMSO for 2 hr and stimulated for 5 min with 75 ng/ml C5a (R&D) at 37° C. in 5% CO2. The culture medium was removed and cells were fixed for 20 min at room temperature by addition of 100 μl of 4% cell fixing buffer to each well. AKT phosphorylation and total AKT was detected by ELISA.
Detection of Phospho-Ser-473 AKT and Total AKT by ELISA
The fixed cells were washed twice with 150 μl of wash buffer (WB) and quenched by incubating with 100 μl of Quenching Buffer for 20 min at room temperature. Cells were washed once with 150 μl WB and blocked by incubating with 100 μl of Blocking Buffer for 1 hr at room temperature. Cells were incubated with 50 μl of primary antibody diluted in Blocking Buffer, either phospho-Ser-473 AKT specific (1:150 dilution) or total-AKT antibody (1:200 dilution), to each specific well. The negative control wells contained 50 μl of Blocking Buffer. Plates were sealed with plate sealing film and incubated overnight at 4° C. Cells were washed twice with 150 μl WB followed by addition of 50 μl per well of DELFIA secondary antibody (50 ng/well, diluted in DELFIA Assay Buffer). After 2 hr incubation at room temperature, cells were washed 4 times with 150 μl of Europium Wash Solution followed by addition of 100 μl of DELFIA Enhancing Solution to each well. Plates were incubated for 5 min in the dark and fluorescent signal was read using SpectraMax M5™ (Molecular Devices). Total AKT level was determined to verify equal cell number per well. The average background fluorescence values from wells that received vehicle control in the absence of PDGF-BB or C5a were subtracted from all the values of experimental conditions. Fluorescence values corresponding to phosphorylated AKT from wells that received PDGF-BB or C5a were normalized to 100% and compound effect was plotted as % change relative to the vehicle control.

A value given as a limit tells only on which side of the number the result lay.

T3 sequence (P48736 whole entry): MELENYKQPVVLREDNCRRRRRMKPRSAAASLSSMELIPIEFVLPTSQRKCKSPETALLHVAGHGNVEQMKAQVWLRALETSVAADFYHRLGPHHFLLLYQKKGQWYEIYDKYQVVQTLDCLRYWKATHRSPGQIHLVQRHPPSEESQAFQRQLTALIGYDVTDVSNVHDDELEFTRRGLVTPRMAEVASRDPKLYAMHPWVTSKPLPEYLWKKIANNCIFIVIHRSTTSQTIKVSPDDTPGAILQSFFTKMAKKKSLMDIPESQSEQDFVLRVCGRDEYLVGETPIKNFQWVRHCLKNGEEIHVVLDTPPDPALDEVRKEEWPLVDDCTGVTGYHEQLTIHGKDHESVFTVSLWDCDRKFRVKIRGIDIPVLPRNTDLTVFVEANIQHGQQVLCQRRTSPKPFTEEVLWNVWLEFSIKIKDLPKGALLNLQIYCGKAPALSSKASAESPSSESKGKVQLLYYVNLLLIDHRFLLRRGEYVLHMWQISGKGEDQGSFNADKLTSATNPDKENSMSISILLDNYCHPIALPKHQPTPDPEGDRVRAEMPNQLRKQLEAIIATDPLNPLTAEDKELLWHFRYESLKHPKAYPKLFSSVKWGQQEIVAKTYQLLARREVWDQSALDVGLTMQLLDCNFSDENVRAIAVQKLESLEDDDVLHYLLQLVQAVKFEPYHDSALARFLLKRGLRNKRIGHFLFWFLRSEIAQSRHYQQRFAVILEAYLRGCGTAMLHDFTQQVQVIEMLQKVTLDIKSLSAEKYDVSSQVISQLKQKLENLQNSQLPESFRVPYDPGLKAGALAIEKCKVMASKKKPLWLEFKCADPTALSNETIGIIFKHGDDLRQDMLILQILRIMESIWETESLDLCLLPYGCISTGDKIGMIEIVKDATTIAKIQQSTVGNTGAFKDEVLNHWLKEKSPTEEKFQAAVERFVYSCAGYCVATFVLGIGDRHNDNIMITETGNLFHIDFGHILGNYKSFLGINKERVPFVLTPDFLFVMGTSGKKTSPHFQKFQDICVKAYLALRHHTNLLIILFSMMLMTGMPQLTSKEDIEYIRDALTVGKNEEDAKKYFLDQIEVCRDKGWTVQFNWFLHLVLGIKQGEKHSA
T4 sequence (Q9JHG7 whole entry): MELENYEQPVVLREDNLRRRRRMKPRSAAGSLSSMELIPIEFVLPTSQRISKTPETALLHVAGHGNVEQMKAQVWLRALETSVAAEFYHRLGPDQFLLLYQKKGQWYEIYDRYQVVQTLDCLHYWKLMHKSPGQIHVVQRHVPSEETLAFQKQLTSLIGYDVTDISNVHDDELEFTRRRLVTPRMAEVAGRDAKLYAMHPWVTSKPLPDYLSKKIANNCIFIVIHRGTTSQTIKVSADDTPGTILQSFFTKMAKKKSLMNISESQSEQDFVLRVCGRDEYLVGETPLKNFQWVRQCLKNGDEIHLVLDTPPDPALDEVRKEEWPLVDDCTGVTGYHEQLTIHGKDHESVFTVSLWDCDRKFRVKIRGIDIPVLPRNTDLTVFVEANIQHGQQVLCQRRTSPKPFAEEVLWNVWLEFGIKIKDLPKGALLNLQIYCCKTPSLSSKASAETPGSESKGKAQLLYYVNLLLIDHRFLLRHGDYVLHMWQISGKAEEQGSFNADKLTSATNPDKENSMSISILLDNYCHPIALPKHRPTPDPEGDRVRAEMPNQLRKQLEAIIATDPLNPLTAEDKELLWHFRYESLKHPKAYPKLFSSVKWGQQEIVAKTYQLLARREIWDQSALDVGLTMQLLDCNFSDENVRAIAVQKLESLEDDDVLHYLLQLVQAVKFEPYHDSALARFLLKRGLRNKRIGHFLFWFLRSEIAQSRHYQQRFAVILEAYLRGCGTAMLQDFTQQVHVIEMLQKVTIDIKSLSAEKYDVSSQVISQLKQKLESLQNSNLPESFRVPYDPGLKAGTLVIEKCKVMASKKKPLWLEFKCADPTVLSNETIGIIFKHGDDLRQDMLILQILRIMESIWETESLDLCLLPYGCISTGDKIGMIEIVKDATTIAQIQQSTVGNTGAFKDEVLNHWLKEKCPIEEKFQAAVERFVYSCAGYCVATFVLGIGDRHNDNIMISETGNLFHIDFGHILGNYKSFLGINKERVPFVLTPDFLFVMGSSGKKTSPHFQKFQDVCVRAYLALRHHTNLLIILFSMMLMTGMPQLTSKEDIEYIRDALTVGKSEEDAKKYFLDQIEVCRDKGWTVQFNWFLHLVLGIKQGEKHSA
T1 sequence (P42338 whole entry): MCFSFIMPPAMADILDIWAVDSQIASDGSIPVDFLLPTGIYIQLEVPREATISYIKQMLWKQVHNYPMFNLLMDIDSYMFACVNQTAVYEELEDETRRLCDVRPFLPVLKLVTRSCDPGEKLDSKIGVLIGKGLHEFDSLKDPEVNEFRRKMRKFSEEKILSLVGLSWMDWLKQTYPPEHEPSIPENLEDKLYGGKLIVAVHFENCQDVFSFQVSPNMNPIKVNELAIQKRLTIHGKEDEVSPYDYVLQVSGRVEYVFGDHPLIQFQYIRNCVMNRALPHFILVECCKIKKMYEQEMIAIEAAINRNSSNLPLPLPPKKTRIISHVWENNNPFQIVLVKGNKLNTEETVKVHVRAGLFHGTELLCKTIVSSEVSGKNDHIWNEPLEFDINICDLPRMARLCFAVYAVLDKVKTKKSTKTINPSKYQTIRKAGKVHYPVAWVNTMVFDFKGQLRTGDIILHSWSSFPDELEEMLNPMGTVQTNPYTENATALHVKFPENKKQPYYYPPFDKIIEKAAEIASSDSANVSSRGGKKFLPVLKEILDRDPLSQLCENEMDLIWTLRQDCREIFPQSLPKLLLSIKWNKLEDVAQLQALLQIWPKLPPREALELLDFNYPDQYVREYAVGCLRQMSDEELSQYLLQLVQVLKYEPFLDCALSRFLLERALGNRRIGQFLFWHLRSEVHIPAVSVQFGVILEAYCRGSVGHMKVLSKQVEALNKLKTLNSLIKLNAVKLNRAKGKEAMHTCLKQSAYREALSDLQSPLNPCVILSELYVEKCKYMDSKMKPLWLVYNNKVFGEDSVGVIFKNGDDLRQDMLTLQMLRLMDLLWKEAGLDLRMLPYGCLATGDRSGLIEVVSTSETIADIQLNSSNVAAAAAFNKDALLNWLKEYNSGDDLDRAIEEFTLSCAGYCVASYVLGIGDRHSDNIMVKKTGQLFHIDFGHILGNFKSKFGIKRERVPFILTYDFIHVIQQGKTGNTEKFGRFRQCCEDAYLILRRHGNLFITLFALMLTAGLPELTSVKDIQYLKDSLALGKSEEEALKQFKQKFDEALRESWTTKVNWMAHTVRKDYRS
T1 sequence (P27986 whole entry partner): as the sequence (P27986 whole entry partner) above

For the molecule `CC(Nc1ncnc2[nH]cnc12)c1nc2ccccc2nc1-c1ccccc1` (centres unmarked) [Compound Q1], the inhibition at 10 µM is 72% at PI3Kβ (p110β/p85α) (read-out: PI3Kβ % inhib), 100% on PI3Kδ (p110δ/p85α) and 99% on PI3Kγ (p110 gamma) (read-out: PI3Kγ % inhib). Moreover, the IC50 at PI3Kβ (p110β/p85α) is greater than 10000 nM; on PI3Kδ (p110δ/p85α), 14 nM; on PI3Kγ (p110 gamma), 147 nM. Moreover, the inhibition at 0.1 µM at PI3Kδ (p110δ/p85α) was 74%. Besides, the inhibition at 1 µM at PI3Kδ (p110δ/p85α) stood at 85%; at PI3Kγ (p110 gamma) (read-out: PI3Kγ % inhib), 78%. A half-maximal response on PI3Kγ (EC50) required 4620 nM.

With `CC(Nc1ncnc2[nH]cnc12)c1nc2ccccc2nc1-c1cc(F)cc(F)c1` (centres unmarked) [Compound Q2, N-{1-[3-(3,5-difluorophenyl)quinoxalin-2-yl]ethyl}-9H-purin-6-amine], the inhibition at 10 µM amounted to 8% at PI3Kβ (p110β/p85α) (read-out: PI3Kβ % inhib), 100% on PI3Kδ (p110δ/p85α) and 86% at PI3Kγ (p110 gamma) (read-out: PI3Kγ % inhib). Moreover, the IC50 at PI3Kβ (p110β/p85α) was greater than 10000 nM; on PI3Kδ (p110δ/p85α), 58 nM; at PI3Kγ (p110 gamma), 5790 nM. Besides, the inhibition at 0.1 µM at PI3Kδ (p110δ/p85α) was found to be 20%. Further, the inhibition at 1 µM was 82% at PI3Kδ (p110δ/p85α) and 42% on PI3Kγ (p110 gamma) (read-out: PI3Kγ % inhib). The EC50 (in general, the concentration giving half of the maximal effect) at PI3Kγ was greater than 20000 nM.

Regarding `Cc1cccc(-c2nc3ccccc3nc2C(C)Nc2ncnc3[nH]cnc23)c1` (centres unmarked) [Compound Q3], the inhibition at 10 µM worked out at 25% at PI3Kβ (p110β/p85α) (read-out: PI3Kβ % inhib), 100% at PI3Kδ (p110δ/p85α) and 94% on PI3Kγ (p110 gamma) (read-out: PI3Kγ % inhib). Further, the IC50 on PI3Kβ (p110β/p85α) was greater than 10000 nM; on PI3Kδ (p110δ/p85α) it was 36 nM; on PI3Kγ (p110 gamma), 2070 nM. Moreover, the inhibition at 0.1 µM on PI3Kδ (p110δ/p85α) came out at 48%. In addition, the results for the inhibition at 1 µM on PI3Kδ (p110δ/p85α) and at PI3Kγ (p110 gamma) (read-out: PI3Kγ % inhib) were 86% and 51%, respectively. Moreover, the concentration for a half-maximal effect (EC50) on PI3Kγ is greater than 20000 nM.

`Cc1cccc2nc(C(C)Nc3nc(N)nc4[nH]cnc34)c(-c3ccccc3)nc12` (centres unmarked) [Compound Q4]: the values for the inhibition at 10 µM at PI3Kβ (p110β/p85α) (read-out: PI3Kβ % inhib), on PI3Kδ (p110δ/p85α) and on PI3Kγ (p110 gamma) (read-out: PI3Kγ % inhib) were 77%, 100% and 99%, respectively. The values for the IC50 at PI3Kβ (p110β/p85α), on PI3Kδ (p110δ/p85α) and at PI3Kγ (p110 gamma) were 1130 nM, 2 nM and 8 nM, respectively. Also, the inhibition at 0.1 µM at PI3Kδ (p110δ/p85α) amounted to 77%; at PI3Kγ (p110 gamma) (0.1 μM, read-out: PI3Kγ % inhib) it was 36%. The inhibition at 1 µM is 86% on PI3Kδ (p110δ/p85α) and 84% on PI3Kγ (p110 gamma) (read-out: PI3Kγ % inhib). At PI3Kγ, this molecule yielded an EC50 of 344 nM.

`Cc1cccc2nc(C(C)Nc3nc(N)nc4[nH]cnc34)c(-c3ccc(F)cc3)nc12` (centres unmarked) [Compound Q5]: the inhibition at 1 µM at PI3Kβ (p110β/p85α) (1 μM, read-out: PI3Kβ % inhib) was 23%; at PI3Kδ (p110δ/p85α), 69%; on PI3Kγ (p110 gamma) (read-out: PI3Kγ % inhib), 79%. In addition, the figures for the inhibition at 10 µM on PI3Kβ (p110β/p85α) (read-out: PI3Kβ % inhib), at PI3Kδ (p110δ/p85α) and on PI3Kγ (p110 gamma) (read-out: PI3Kγ % inhib) were 85%, 99% and 98%, respectively. The IC50 on PI3Kβ (p110β/p85α) came out at 459 nM; on PI3Kδ (p110δ/p85α), 2 nM; on PI3Kγ (p110 gamma) it was 2 nM. On PI3Kγ, this molecule came in with an EC50 of 628 nM.

For `CCC(Nc1ncnc2[nH]cnc12)c1nc2cccc(F)c2nc1-c1ccccc1` (centres unmarked) [Compound Q9], the inhibition at 10 µM on PI3Kβ (p110β/p85α) (read-out: PI3Kβ % inhib) is 60%; at PI3Kδ (p110δ/p85α), 100%; at PI3Kγ (p110 gamma) (read-out: PI3Kγ % inhib), 95%. Moreover, the IC50 on PI3Kβ (p110β/p85α) is greater than 10000 nM; at PI3Kδ (p110δ/p85α) it was 37 nM; on PI3Kγ (p110 gamma), 2150 nM. Moreover, the inhibition at 0.1 µM on PI3Kδ (p110δ/p85α) was 72%. Moreover, the inhibition at 1 µM on PI3Kδ (p110δ/p85α) was found to be 86%; on PI3Kγ (p110 gamma) (read-out: PI3Kγ % inhib) it was 37%. This molecule yielded an EC50 at PI3Kγ greater than 20000 nM.

Turning to `CCC(Nc1ncnc2[nH]cnc12)c1nc2ccccc2nc1-c1ccccc1` (centres unmarked) [Compound Q12], the inhibition at 10 µM on PI3Kβ (p110β/p85α) (read-out: PI3Kβ % inhib) is 75%; on PI3Kδ (p110δ/p85α) it was 100%; on PI3Kγ (p110 gamma) (read-out: PI3Kγ % inhib), 96%. The IC50 was greater than 10000 nM on PI3Kβ (p110β/p85α), 17 nM on PI3Kδ (p110δ/p85α) and 762 nM at PI3Kγ (p110 gamma). At PI3Kδ (p110δ/p85α), the inhibition at 0.1 µM amounted to 71%. In addition, the inhibition at 1 µM on PI3Kδ (p110δ/p85α) stood at 83%; at PI3Kγ (p110 gamma) (read-out: PI3Kγ % inhib) it was 44%. Also, the EC50 at PI3Kγ is greater than 20000 nM.
